Test results published in US10993957B2 (NuCana plc, priority 2011, dated 2021).
“Also recorded” adds a separate entry of the source. Read-outs that look alike come from different tables or passages of the source.

Tests used:
[1] = test system: L1210.Hyor; assay: Cytostatic assay, Mycoplasma hyorhinis-infected L1210 cells; conditions: for % Retention: CC50 L1210 × 100 ÷ CC50 L1210/Hyor; for CC50 / IC50: Mus musculus; for CC50: L1210, read-out: CC50 L1210/Hyor
In short: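 Suspension L1210/0 murine leukaemia cells infected with M. hyorhinis, seeded at 60,000 cells/well with test compound in DMEM/10% FBS and grown 48 h at 37 °C, 5% CO2. Cell number counted by Coulter counter; activity also expressed as % retained versus uninfected cells.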

[2] = test system: Cem/0; assay: Cytostatic assay, CEM/0 cells; assay type: cell-based, human; conditions: Homo sapiens, CCRF-CEM; for CC50: Table 1, read-out: CC50 Cem/0
Description: (§1) The cell lines employed were L1210/0 (a leukemia cell line), FM3A/0 (a breast cancer cell line), Cem/0 (an acute lymphoblastic leukemia cell line) and HeLa (a cervical cell line).

[3] = test system: Cem/hEnt-0; assay: Cytostatic assay, CEM cells lacking the hEnt1 transporter; assay type: cell-based; conditions: Homo sapiens, CCRF-CEM, read-out: IC50 Cem/hEnt-0
Description: (§2) Data are mean (±SD) of at least two to four independent experiments. Table 8 identifies the phosphoramidate motif of compounds embodying the present invention, as discussed above with respect to Table 6, but with “Naph” standing for 1-naphthyl.

[4] = test system: L1210/TK^−; assay: Cytostatic assay, thymidine kinase-deficient L1210/TK^− cells; assay type: cell-based, murine; conditions: Mus musculus; for IC50: L1210
[5] = test system: Cem/hEnt-1; assay: Cytostatic assay, CEM cells containing the hEnt1 transporter; assay type: cell-based
Description: as §2

[6] = target: T1, thymidylate synthase (TS) (Mus musculus, UniProt P07607); assay: TS activity in intact L1210/TK^− cells (tritium release); assay type: cell-based, murine; conditions: tritium release from [5-3H]dCyd, 4 hours preincubation; read-out: IC50 against TS, L1210/TK^−
T1 sequence (P07607 whole entry): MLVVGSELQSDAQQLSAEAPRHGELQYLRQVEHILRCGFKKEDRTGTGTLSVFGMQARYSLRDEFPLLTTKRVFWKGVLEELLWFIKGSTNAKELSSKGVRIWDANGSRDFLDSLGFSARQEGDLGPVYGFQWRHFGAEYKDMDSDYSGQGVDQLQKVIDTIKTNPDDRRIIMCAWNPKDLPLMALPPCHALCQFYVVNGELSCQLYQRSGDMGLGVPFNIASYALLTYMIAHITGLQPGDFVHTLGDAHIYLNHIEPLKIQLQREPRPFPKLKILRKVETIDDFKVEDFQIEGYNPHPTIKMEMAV
Protocol: (§3) The activity of TS in intact L1210/0 and L1210/TK^− cells was measured by evaluation of tritium release from [5-^3H]dUMP (formed in the cells from [5-^3H]dUrd or [5-^3H]dCyd) in the reaction catalysed by TS. This method has been described in detail by Balzarini & De Clercq (1984). […] After 30 min, 2 h and 4 h preincubation of the cells with the compounds at 37° C., 1 μCi of [5-^3H]dUrd or [5-^3H]dCyd was added to the cell cultures. After 30 min incubation, 100 μL of the cell suspensions were withdrawn and added to a cold suspension of 500 μL activated charcoal (VWR, Haasrode, Belgium) (100 mg/ml in TCA 5%). After 10 min, the suspension was centrifuged at 13,000 rpm for 10 min, after which the radioactivity in 400 μL supernatant was counted in a liquid sinctillator using OptiPhase HiSafe (Perkin Elmer, Waldham, Mass.).

[7] = target: Thymidine Phosphorylase purified from Escherichia coli (Escherichia coli, UniProt P07650); assay: Phosphorylase assay by in situ 19F NMR
Chain of Thymidine Phosphorylase purified from Escherichia coli (P07650 whole entry): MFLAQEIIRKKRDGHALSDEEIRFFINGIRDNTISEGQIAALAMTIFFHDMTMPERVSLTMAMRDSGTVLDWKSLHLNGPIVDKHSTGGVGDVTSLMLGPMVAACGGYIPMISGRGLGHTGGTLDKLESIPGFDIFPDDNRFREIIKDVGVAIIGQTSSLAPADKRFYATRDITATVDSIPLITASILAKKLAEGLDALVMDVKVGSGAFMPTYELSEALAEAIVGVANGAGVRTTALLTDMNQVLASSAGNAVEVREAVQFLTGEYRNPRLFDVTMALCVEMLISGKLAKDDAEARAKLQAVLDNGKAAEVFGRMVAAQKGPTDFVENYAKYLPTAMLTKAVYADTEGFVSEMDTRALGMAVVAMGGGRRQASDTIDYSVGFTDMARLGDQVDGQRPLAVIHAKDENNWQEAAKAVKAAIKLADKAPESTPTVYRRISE
Protocol: Two potassium phosphate buffers at pH=7.4, 200 nM solution and 300 nM solution respectively, were used as phosphate donor. Units of enzyme were defined as the amount of enzyme required to hydrolyse about 0.25 mg of inosine per min used as standard. Assays were conducted for 30 minutes.

[8] = test system: U87; assay: Cytostatic assay, U87 cells; assay type: cell-based; conditions: Homo sapiens, U-87 MG, read-out: IC50 U87
Protocol: All cells were maintained in Dulbecco's modified Eagle's medium (DMEM) (Invitrogen, Carlsbad, Calif.) with 10% foetal bovine serum (FBS) (Biochrom AG, Berlin, Germany), 10 mM Hepes and 1 mM Sodium Pyruvate (Invitrogen). Cells were grown at 37° C. in a humidified incubator with a gas phase of 5% CO2.
After 24 hours, an equal volume of fresh medium containing the test compounds was added. On day 5, cells were trypsinized and counted in a Coulter counter (Analis, Suarlée, Belgium). […] The cells were allowed to proliferate for 48 h (L1210) or 72 hours (CEM) and were then counted in a Coulter counter.

[9] = test system: HeLa; assay: Cytostatic assay, HeLa cells; assay type: cell-based; conditions: Homo sapiens, HeLa; for CC50: Table 1, read-out: CC50 HeLa; for IC50: Table 6, read-out: IC50 HeLa
Description: as §1

[10] = target: T1, thymidylate synthase (TS); assay: TS activity in intact L1210/0 cells (tritium release); assay type: cell-based, murine; conditions: for increase of inhibition of 3H release upon longer preincubation times: up to 4 hr versus 30 min
Protocol: as §3
The activity of TS in intact tumour cells can be directly monitored by measuring the tritium release in intact L1210/0 cell cultures that were exposed to [5-^3H]deoxyuridine ([5-^3H]dUrd) or [5-^3H]deoxycytidine ([5-^3H]dCyd). Indeed, after intracellular conversion of [5-^3H]dUrd or [5-^3H]dCyd to [5-^3H]dUMP, the C-5 tritium atom on the pyrimidine base is released during the TS-catalysed reductive methylation.

[11] = Table 3, read-out: IC50 L1210/TK−
[12] = Table 6, read-out: IC50 L1210/TK^−
[13] = Homo sapiens, CCRF-CEM, read-out: IC50 Cem/hEnt-1
[14] = L1210/0, 30 min preincubation, both substrates, read-out: IC50 for tritium release from [5-3H]dCyd and [5-3H]dUrd
[15] = intact L1210/0 cells, 30 min exposure, read-out: IC50 Tritium release from dCyd*
[16] = intact L1210/0 cells, 30 min exposure, read-out: IC50 Tritium release from dUrd*
[17] = tritium release from [5-3H]dCyd, 4 hours preincubation, read-out: IC50 against TS, L1210/0

Compound: C[C@H](NP(=O)(OC[C@H]1O[C@@H](n2cc(F)c(=O)[nH]c2=O)CC1O)Oc1cccc2ccccc12)C(=O)OCc1ccccc1 (stereo partly drawn) [CPF 373, 5-Fluoro-2′deoxyuridine-5′-O-[1-naphthyl (benzoxy-L-alaninyl)] phosphate]
- % Retention [1]: 44%
- CC50 [1]: 25 nM
- IC50 ([1]; L1210, read-out: IC50 L1210.Hyor): 25 nM
- IC50(L1210.Hyor)/IC50(L1210/0) ([1]; Table 7): 2.27
- CC50 [2]: 89 ± 43 nM
- IC50 ([2]; Table 3, read-out: IC50 CEM/0): 89 nM
- IC50 ([2]; Table 6, read-out: IC50 Cem/0): 68 ± 35 nM
- IC50 [3]: 600 ± 110 nM
- IC50 [4, 11]: 27 nM
- IC50 [4, 12]: 45 ± 27 nM
- IC50 [5, 13]: 50 ± 20 nM
- IC50 ([5]; read-out: IC50 Cem/hEnt-1 + NBMPR, in the presence of NBMPR): 260 nM
- IC50 ([5]; read-out: IC50 Cem/hEnt-1 + dipyridamole, in the presence of dipyridamole): 130 nM
- IC50 [6]: 53 nM
- Stability in the presence of TP (19F NMR) ([7]; with and without TP, repeated after days): completely stable; also recorded: evident stability against TP enzymatic activity
- IC50 [8]: 35 nM
- CC50 [9]: 65 ± 13 nM
- IC50 [9]: 65 ± 13 nM
- inhibitory activity on tritium release less pronounced than that of 5-FdUrd ([10]; 30 min preincubation): ~200 fold
- IC50 [10, 14]: 160 to 190 nM
- IC50 [10, 15]: 190 ± 80 nM
- IC50 [10, 16]: 160 ± 50 nM
- IC50 [10, 17]: 13 nM
- increase of inhibition of 3H release upon longer preincubation times [10]: 10 fold

Compound: O=c1[nH]c(=O)n([C@H]2C[C@H](O)[C@@H](CO)O2)cc1F [5-FdUrd, 5-fluoro-2′-deoxyuridine, reference compound]
- % Retention [1]: 0.2%
- CC50 [1]: 278 nM
- IC50 ([1]; L1210, read-out: IC50 L1210.Hyor, Table 3): 240 nM
- loss of cytostatic activity against L1210.Hyor cells ([1]; versus L1210/0): 300 fold
- CC50 [2]: 28 ± 2 nM
- IC50 ([2]; Table 3, read-out: IC50 CEM/0): 28 nM
- IC50 ([2]; Table 6, read-out: IC50 Cem/0): 22 ± 6 nM
- IC50 [3]: 2500 ± 650 nM
- CC50 ([4]; L1210, Table 1, read-out: CC50 L1210/TK^−): 3100 ± 200 nM
- IC50 [4, 11]: 3100 nM
- IC50 [4, 12]: 3000 ± 100 nM
- IC50 [5, 13]: 40 ± 20 nM
- IC50 [6]: 1420 ± 90 nM
- Conversion of substrate into the base 5-FU ([7]; potassium phosphate buffer increased to 205 nM): fully converted
- Conversion of nucleoside into the free base 5FU ([7]; potassium phosphate buffer, pH 7.4, TP 20.7 UNI, 25° C.): 66%
- IC50 ([8]; Table 3): 7 ± 1 nM
- CC50 [9]: 29 ± 7 nM
- IC50 [9]: 50 ± 11 nM
- IC50 [10, 14]: 0.7 to 0.9 nM
- IC50 [10, 15]: 0.7 nM
- IC50 [10, 16]: 0.9 ± 0.2 nM
- IC50 [10, 17]: 0.3 nM
- increase of inhibition of 3H release upon longer preincubation times [10]: 2 fold
